We go through 20 compounds from ChEMBL document CHEMBL1123299, “New antiarrhythmic agents. 2,2,5,5-Tetramethyl-3-pyrroline-3-carboxamides and 2,2,5,5-tetramethylpyrrolidine-3-carboxamindes” (J Med Chem, 1986).

Series [1] concerns Cavia porcellus. In words: Amount of ouabain needed for production of ventricular arrhythmias that causes death in guinea pig by cardiac arrest at a dose of 4 mg/kg iv given 5 min prior. It is filed as functional, Cardiac ventricle.
The subject of series [2] is Cavia porcellus. In words: Amount of ouabain needed for production of ventricular fibrillation at a dose of 4 mg/kg (iv given 5 min prior) in guinea pig. It is filed as functional, Cardiac ventricle.
The subject of series [3] is Cavia porcellus. In words: Amount of ouabain needed for production of ventricular extra-systoles at a dose of 4 mg/kg (iv given 5 min prior) in guinea pig. It is filed as functional, Cardiac ventricle.
In series [4] the test system is Rattus norvegicus. Nature of the series: Incidence of arrhythmias in rats after a intravenal administration at 4 mg/kg, expressed as no. of positive cases out of no. of tested cases (10). The class given is functional.
Series [5] concerns Rattus norvegicus. Nature of the series: Acute toxicity in secondary evaluation when administered intravenously (iv) against aconitine-induced arrhythmias in anesthetized rats. Relative potency with respect to quinidine. It is filed as functional, organism-based.
Series [6] concerns Rattus norvegicus. Nature of the series: (§1) Acute toxicity in secondary evaluation when administered intravenously (iv) against aconitine-induced arrhythmias in anesthetized rats. The class given is functional, organism-based.
In series [7] the test system is Rattus norvegicus. In words: (§2) Acute toxicity in secondary evaluation when administered intravenously (iv) against aconitine-induced arrhythmias in anesthetized rats. It is filed as functional, organism-based.
For series [8], the system named is Cavia porcellus. Nature of the series: Amount of ouabain needed for production of ventricular extra-systoles at a dose of 1 mg/kg (iv given 5 min prior) in guinea pig. It is filed as functional, Cardiac ventricle.
Series [9] concerns Cavia porcellus. Nature of the series: Amount of ouabain needed for production of ventricular fibrillation at a dose of 1 mg/kg (iv given 5 min prior) in guinea pig. The class given is functional, Cardiac ventricle.
The species entered for series [10] is Rattus norvegicus. In words: Relative potency with reference to quinidine. It is filed as functional.
Series [11] deals with Cavia porcellus. Nature of the series: Amount of ouabain needed for production of ventricular arrhythmias that causes death in guinea pig by cardiac arrest at a dose of 1 mg/kg iv given 5 min prior. The class given is functional, Cardiac ventricle.
The test system of series [12] is Rattus norvegicus. In words: Tested for incidence of arrhythmias in rats after a intravenal administration of 2 mg/kg expressed as no. of positive cases out of no. of tested cases (10). It is filed as functional.
Series [13] can be described thus: Acute toxicity determined after intravenal administration in mice. Particulars: mouse, in vivo, iv. It is filed as organism-based.
Series [14] deals with Rattus norvegicus. Nature of the series: Tested for incidence of arrhythmias in rats after a intravenal administration of 1 mg/kg expressed as no. of positive cases out of no. of tested cases (10). It is filed as functional.
Series [15] in a line: Acute toxicity in secondary evaluation when administered intravenously (iv) against aconitine-induced arrhythmias in anesthetized rats..parenthesis indicates 95%CL. The following applies: rat, in vivo. The class given is organism-based.
Series [16] in a line: as §1. It is filed as organism-based. Particulars: rat, in vivo.
For series [17], the system named is Cavia porcellus. In words: Amount of ouabain needed for production of ventricular arrhythmias that causes death in guinea pig by cardiac arrest at a dose of 2 mg/kg iv given 5 min prior. The class given is functional, Cardiac ventricle.
The subject of series [18] is Cavia porcellus. In words: Amount of ouabain needed for production of ventricular extra-systoles at a dose of 2 mg/kg (iv given 5 min prior) in guinea pig. The class given is functional, Cardiac ventricle.
Series [19] deals with Rattus norvegicus. In words: Tested for incidence of arrhythmias in rats after a intravenal administration of 4 mg/kg expressed as no. of positive cases out of no. of tested cases (10). The class given is functional.
Series [20] deals with Cavia porcellus. Nature of the series: Amount of ouabain needed for production of ventricular fibrillation at a dose of 2 mg/kg (iv given 5 min prior) in guinea pig. The class given is functional, Cardiac ventricle.
Series [21] in a line: as §2. It is filed as organism-based. The following applies: rat, in vivo.
Series [22] has as its system Rattus norvegicus. Nature of the series: Effective dose against aconitine-induced arrhythmia after intravenal administration in anesthetized rats. It is filed as functional.
Series [23] has as its system Rattus norvegicus. Nature of the series: Tested for incidence of arrhythmias in rats after a intravenal administration of 0.5 mg/kg expressed as no. of positive cases out of no. of tested cases (10). It is filed as functional.

Some results are limits rather than exact numbers.

Turning to `CCN(CC)CC(=O)Nc1c(C)cccc1C` [LIDOCAINE], the Average dose in [1] came out at 0.2702 mg/kg; in series [2], 0.2477 mg/kg; in [3], 0.2001 mg/kg.
`Cc1cccc(C)c1OCC(C)NC(=O)C1CC(C)(C)N([O])C1(C)C` (stereo not drawn) returned a No. of positive cases in series [4] of 6. In [5], this compound registered a Relative potency of 1.3. In [6], this compound came in with an LD50 of 21 mg/kg. The compound also registered an ED150 in series [7] of 9.2 mg/kg.
With `CCc1nc2ccccc2c(=O)n1CCCNC(=O)C1=CC(C)(C)NC1(C)C`, the Average dose in series [8] is 0.2115 mg/kg; in series [9] it was 0.2982 mg/kg; in series [11], 0.316 mg/kg. For the same compound, the Relative potency in series [10] amounted to 7. The “No. of positive cases” value in series [12] was determined as 10.
In turn, `CCN(CC)C(=O)COc1c(CNCCCNC(=O)C2=CC(C)(C)NC2(C)C)cccc1OC` returned an LD50 in series [13] of 2.1 mg/kg. In series [14], the “No. of positive cases” value is on record as 1.
For `Cc1cccc(C)c1NC(=O)CNC(=O)C1=CC(C)(C)N([O])C1(C)C`, the LD50 in series [15] amounted to 136 mg/kg. In series [4], the “No. of positive cases” value stood at 0.
In the case of `CC.Cc1cccc(C)c1NC(=O)CNC(=O)C1CC(C)(C)N(O)C1(C)C` (stereo not drawn), the “No. of positive cases” value in series [4] was found to be 0. Also, the median lethal dose (LD50) in [16] was greater than 200 mg/kg.
In series [10], `C=CCc1ccc(OCC(=O)NCCCNC(=O)C2=CC(C)(C)NC2(C)C)c(OC)c1` yielded a Relative potency of 8.5. Also, the Average dose was 0.3988 mg/kg in series [17], 0.2266 mg/kg in series [18] and 0.3536 mg/kg in series [20]. In addition, in series [19], the “No. of positive cases” value came to 10.
As to `Cc1cccc(C)c1NC(=O)C(C)N` (stereo not drawn) [TOCAINIDE], the Average dose in series [1] worked out at 0.3928 mg/kg; in [2], 0.3581 mg/kg; in [3], 0.236 mg/kg.
As to `CC1(C)C=C(C(=O)NCCCN2C(=O)c3ccccc3C2=O)C(C)(C)N1[O]`, the “No. of positive cases” value in [4] was 0. For the same compound, in series [21], the median lethal dose (LD50) is 187 mg/kg.
Turning to `CC1(C)CC(C(=O)NCCCNCc2ccccc2OCc2ccccc2)C(C)(C)N1` (stereo not drawn), the LD50 in series [13] came to 13 mg/kg. Also, the Relative potency in series [10] came out at 22.9. Moreover, the “No. of positive cases” value in series [14] came to 10. Also, the ED150 in series [22] turned out to be 0.52 mg/kg.
For `Cc1cccc(C)c1OCC(C)NC(=O)C1=CC(C)(C)NC1(C)C` (stereo not drawn), the Average dose in series [8] is 0.2534 mg/kg; in [9] it was 0.3166 mg/kg; in series [11] it was 0.3476 mg/kg. The same compound returned an LD50 in series [13] of 11 mg/kg. Further, the Relative potency in series [10] was 12.8. The same compound yielded an ED150 in [22] of 0.93 mg/kg. Besides, the “No. of positive cases” value in [23] is 10.
As to `C=CCOc1ccccc1CNCCCNC(=O)C1=CC(C)(C)NC1(C)C`, the Average dose turned out to be 0.2243 mg/kg in series [8], 0.2802 mg/kg in series [9] and 0.3061 mg/kg in series [11]. The compound also displayed a 50% lethal dose (LD50) in series [13] of 18 mg/kg. In series [10], the Relative potency turned out to be 6.3. This compound also displayed an ED150 in [22] of 1.9 mg/kg. Also, in series [12], the “No. of positive cases” value came to 10.
`C=CCc1ccc(OC(C)C(=O)NCCCNC(=O)C2=CC(C)(C)NC2(C)C)c(OC)c1` (stereo not drawn): in series [13], the 50% lethal dose (LD50) turned out to be 7.6 mg/kg. The compound also had a Relative potency in series [10] of 14.9. For the same compound, the “No. of positive cases” value in series [14] is listed as 10. In [22], this compound had an ED150 of 0.8 mg/kg.
For `Cc1cccc(C)c1OCC(C)N` (stereo not drawn) [MEXILETINE], the Average dose stood at 0.2861 mg/kg in [1], 0.2459 mg/kg in series [2] and 0.1855 mg/kg in series [3].
Regarding `Cc1cccc(C)c1OCC(C)NC(=O)C1=CC(C)(C)N([O])C1(C)C` (stereo not drawn), the LD50 in series [15] was determined as 54 mg/kg. Besides, in series [4], the “No. of positive cases” value was determined as 0.
In [13], `Cc1cccc(C)c1OCC(C)NC(=O)C1CC(C)(C)NC1(C)C` (stereo not drawn) had an LD50 of 2 mg/kg. The compound also gave a Relative potency in [10] of 30.5. The ED150 in [22] is 0.39 mg/kg. Also, the “No. of positive cases” value in [23] is 10.
In turn, `Cc1cccc(C)c1NC(=O)CNCCCNC(=O)C1=CC(C)(C)NC1(C)C` gave a 50% lethal dose (LD50) in [13] of 7.4 mg/kg. The compound also yielded a Relative potency in [10] of 32.2. The “No. of positive cases” value in [14] turned out to be 10. In [22], this compound came in with an ED150 of 0.37 mg/kg.
Taken in the same sequence, the figures for `Cc1cccc(C)c1NC(=O)C1=CC(C)(C)NC1(C)C` were 6 mg/kg, 5.7, 7 and 2.1 mg/kg.
With `Cc1cccc(C)c1NC(=O)C(C)NC(=O)C1=CC(C)(C)N([O])C1(C)C` (stereo not drawn), the median lethal dose (LD50) in series [15] came to 165 mg/kg. For the same compound, the “No. of positive cases” value in series [4] came to 0.
`CCCc1ccc(OCC(=O)NCCCNC(=O)C2=CC(C)(C)NC2(C)C)c(OC)c1`: the 50% lethal dose (LD50) in series [13] was found to be 12 mg/kg. Further, in [10], the Relative potency worked out at 4.1. Moreover, the ED150 in series [22] is 2.9 mg/kg. The “No. of positive cases” value in series [19] came out at 10.
